# Assay results published in patent US20230295197A1, “STAT5 and STAT6 Degraders and Uses Thereof” (REGENTS OF THE UNIVERSITY OF MICHICAN, priority 2022, published 2023).
# Like-named read-outs stand apart in the source and are kept apart here.
# System: STAT5
# Test: Immunoblotting (Western blot) analysis of STAT5 degradation efficiency of degraders in treated cells
# Type: cell-based
# Procedure: Evaluation of the degradation efficiency of degraders may be accomplished by immunoblotting analysis. The representative general protocol is the following:
# Cells are maintained in the appropriate culture medium with 10% FBS at 37° C. and an atmosphere of 5% CO2. Cell lines are used within three months of thawing fresh vials. Cells are lysed 1× Cell Lysis Buffer (Cell Signaling Technology, #9803), resolved by SDS-PAGE NuPAGE gel (Thermo Fisher Scientific), and transferred to a PVDF membrane (Millipore). Membranes are blocked using Odyssey TBS Blocker Buffer (LI-COR). IRDye 680RD and 800CW Dye-labeled secondary antibodies (LI-COR) are used. The washed membranes are scanned using Odyssey CLx imager (LI-COR). The intensity of Western blot signaling is quantitated using the Odyssey software. Primary antibodies used are: STAT5 Rabbit mAb (Cell Signaling Technology, #94205), STAT6 Rabbit mAb (Cell Signaling Technology, #5397) and GAPDH mouse monoclonal antibody (Santa Cruz Biotechnology, sc-47724).
# To evaluate the degradation efficiency of degraders, immunoblotting analysis was performed. The general protocol is the following.
# About 1 million cells for each data point were treated with compounds at indicated concentrations and durations. Untreated and treated cells in cell culture medium were transferred into tubes, followed by centrifugation at 3,000 rpm and 4° C. for 6 min Supernatants were removed from tubes and radioimmunoprecipitation assay (RIPA) lysis buffer supplemented with 1% protease inhibitor cocktail (Fisher Scientific cat. PI87786) and phosphatase inhibitor (Roche cat. 04906837001) were added to tubes containing the remaining cell pellets. The tubes were then left on ice for 30 min and placed in a −80° C. freezer. Subsequently they were thawed in 37° C. water, then centrifuged at 14,000 rpm for 15 min and the cell lysates transferred to new tubes. The concentration of total proteins in each tube was calculated using the Pierce BCA protein Assay kit (cat. 23225). Based on the calculated protein concentration, cell lysates containing approximately the same amount of proteins were transferred to new tubes, then distilled water and 4× Protein Sample Loading Buffer for Western Blots (LI-COR cat. 928-40004) supplemented with 20% of mercaptoethanol (Sigma Aldrich cat. M6250) were added on ice. The cell lysates were then reduced and denatured at 95° C. for 5 min. From the tubes containing cell lysates an equal amount of protein samples (20-40 μg) was loaded into precast 8%, 10%, 4%-12%, or 4%-20% Tris-glycine gels (Novex) filled with Tris-glycine SDS running buffer. After the proteins were resolved, they were transferred onto Immobile-FL PVDF Membrane (Millipore Sigma cat. IPFL00010), using Mini Trans-Blot Electrophoretic Transfer Cell (Bio-Rad 1703930). The membranes were blocked with Intercept Blocking Buffer (LI-COR cat. 927-70001) in LI-COR Western Blot boxes for 1 h at rt. The membranes were washed with 1× Tris-buffered saline-Tween-20 (TBST, 1× solution was made from 20×TBST solution, ThermoFisher Scientific cat. 28360) for 5 min 4 times. The membranes were incubated overnight at 4° C. in Intercept Blocking Buffer supplemented with primary antibodies (normally antibody:buffer 1:1000) and Tween-20. The membranes were washed with TBST for 5 min 4 times and were incubated with Intercept Blocking Buffer supplemented with IRDye 800CE Secondary Antibodies, IRDye 680RD Secondary Antibodies (LI-COR biosciences), Tween-20, and 10% SDS solution, for 1 h at rt. The membranes were then washed with TBST for 5 min 4 times and rinsed with deionized water before drying and scanning with Odyssey Dlx Amazing System (LI-COR). The immunoblots were finally quantified by the software.
# [1] = KU-812 cells, read-out: DC50 S5 KU-812
# [2] = SKNO1 cells, read-out: DC50 S5 SKNO1
# [3] = MOLM-16 cells, numeric bound, read-out: DC50 S5 MOLM-16
SMILES,DC50 [1] [nM],DC50 [2] [nM],DC50 [3] [nM]
"CCN1CC[C@H]2CC[C@@H](C(=O)N(CCC(=O)NCCC#Cc3cccc4c3CN(C3CCC(=O)NC3=O)C4=O)c3ccc(Br)cc3)N2C(=O)[C@@H](NC(=O)c2cc3cc(C(F)(F)P(=O)(O)O)ccc3s2)C1 (stereo partly drawn) [Compound 626, ((2-(((5S,8S,10aR)-8-((4-bromophenyl)(3-((4-(2-(2,6-dioxopiperidin-3-yl)-1-oxoisoindolin-4-yl)but-3-yn-1-yl)amino)-3-oxopropyl)carbamoyl)-3-ethyl-6-oxodecahydropyrrolo[1,2-a][1,5]diazocin-5-yl)carbamoyl)benzo[b]thiophen-5-yl)difluoromethyl)phosphonic acid]",–,–,> 300
"CC(C)(C)[C@H](NC(=O)c1cc2cc(C(F)(F)P(=O)(O)O)ccc2s1)C(=O)N1CCC[C@H]1C(=O)N(CCC(=O)NCCCC#Cc1cccc2c1CN(C1CCC(=O)NC1=O)C2=O)c1ccc(F)cc1 (stereo partly drawn) [Compound 634, ((2-(((2S)-1-((2S)-2-((3-((5-(2-(2,6-dioxopiperidin-3-yl)-1-oxoisoindolin-4-yl)pent-4-yn-1-yl)amino)-3-oxopropyl)(4-fluorophenyl)carbamoyl)pyrrolidin-1-yl)-3,3-dimethyl-1-oxobutan-2-yl)carbamoyl)benzo[b]thiophen-5-yl)difluoromethyl)phosphonic acid]",–,> 10000,> 300
"CC(C)(C)[C@H](NC(=O)c1cc2cc(C(F)(F)P(=O)(O)O)ccc2s1)C(=O)N1CCC[C@H]1C(=O)N(CCC(=O)NCCCC#Cc1cccc2c1CN(C1CCC(=O)NC1=O)C2=O)c1ccccc1 (stereo partly drawn) [Compound 633, ((2-(((2S)-1-((2S)-2-((3-((5-(2-(2,6-dioxopiperidin-3-yl)-1-oxoisoindolin-4-yl)pent-4-yn-1-yl)amino)-3-oxopropyl)(phenyl)carbamoyl)pyrrolidin-1-yl)-3,3-dimethyl-1-oxobutan-2-yl)carbamoyl)benzo[b]thiophen-5-yl)difluoromethyl)phosphonic acid]",> 10000,1000 to 10000,> 300
"CC(C)(C)[C@H](NC(=O)c1cc2cc(C(F)(F)P(=O)(O)O)ccc2s1)C(=O)N1C[C@H](OCc2ccccc2)C[C@H]1C(=O)N(CCC(=O)N1CCC(C#Cc2cccc3c2CN(C2CCC(=O)NC2=O)C3=O)CC1)c1ccc(Br)cc1 (stereo partly drawn) [Compound 621, ((2-(((2S)-1-((2S,4R)-4-(benzyloxy)-2-((4-bromophenyl)(3-(4-((2-(2,6-dioxopiperidin-3-yl)-1-oxoisoindolin-4-yl)ethynyl)piperidin-1-yl)-3-oxopropyl)carbamoyl)pyrrolidin-1-yl)-3,3-dimethyl-1-oxobutan-2-yl)carbamoyl)benzo[b]thiophen-5-yl)difluoromethyl)phosphonic acid]",–,–,> 300
"CC(C)(C)[C@H](NC(=O)c1cc2cc(C(F)(F)P(=O)(O)O)ccc2s1)C(=O)N1C[C@@H](OCc2ccccc2)C[C@H]1C(=O)N(CCC(=O)NCCCCC#Cc1cccc2c1CN(C1CCC(=O)NC1=O)C2=O)c1ccc(Br)cc1 (stereo partly drawn) [Compound 624, ((2-(((2S)-1-((2S,4S)-4-(benzyloxy)-2-((4-bromophenyl)(3-((6-(2-(2,6-dioxopiperidin-3-yl)-1-oxoisoindolin-4-yl)hex-5-yn-1-yl)amino)-3-oxopropyl)carbamoyl)pyrrolidin-1-yl)-3,3-dimethyl-1-oxobutan-2-yl)carbamoyl)benzo[b]thiophen-5-yl)difluoromethyl)phosphonic acid]",–,–,> 300
"CC(C)(C)[C@H](NC(=O)c1cc2cc(C(F)(F)P(=O)(O)O)ccc2s1)C(=O)N1CCC[C@H]1C(=O)N(CCC(=O)NCCCC#Cc1cccc2c1CN(C1CCC(=O)NC1=O)C2=O)c1ccc(C(F)(F)F)cc1 (stereo partly drawn) [Compound 644, ((2-(((2S)-1-((2S)-2-((3-((5-(2-(2,6-dioxopiperidin-3-yl)-1-oxoisoindolin-4-yl)pent-4-yn-1-yl)amino)-3-oxopropyl)(4-(trifluoromethyl)phenyl)carbamoyl)pyrrolidin-1-yl)-3,3-dimethyl-1-oxobutan-2-yl)carbamoyl)benzo[b]thiophen-5-yl)difluoromethyl)phosphonic acid]",–,1000 to 10000,> 300
CC(C)(C)[C@H](NC(=O)c1cc2cc(C(F)(F)P(=O)(O)O)ccc2s1)C(=O)N1C[C@H](OCc2ccccc2)C[C@H]1C(=O)N(CCC(=O)NCCCC#Cc1cccc2c1CN(C1CCC(=O)NC1=O)C2=O)c1ccc(Br)cc1 (stereo partly drawn) [Compound 618],–,–,> 300
"CC(C)(C)[C@H](NC(=O)c1cc2cc(C(F)(F)P(=O)(O)O)ccc2s1)C(=O)N1C[C@H](OCc2ccccc2)C[C@H]1C(=O)N(CCC(=O)NCCCCC#Cc1cccc2c1CN(C1CCC(=O)NC1=O)C2=O)c1ccc(Br)cc1 (stereo partly drawn) [Compound 619, ((2-(((2S)-1-((2S,4R)-4-(benzyloxy)-2-((4-bromophenyl)(3-((6-(2-(2,6-dioxopiperidin-3-yl)-1-oxoisoindolin-4-yl)hex-5-yn-1-yl)amino)-3-oxopropyl)carbamoyl)pyrrolidin-1-yl)-3,3-dimethyl-1-oxobutan-2-yl)carbamoyl)benzo[b]thiophen-5-yl)difluoromethyl)phosphonic acid]",–,–,> 300

# Continued, values first:
DC50 [1] [nM],DC50 [2] [nM],DC50 [3] [nM],SMILES
100 to 1000,100 to 1000,–,"CN(CCCC#Cc1cccc2c1CN(C1CCC(=O)NC1=O)C2=O)C(=O)CCN(C(=O)[C@@H]1CCCN1C(=O)[C@@H](NC(=O)c1cc2cc(C(F)(F)P(=O)(O)O)ccc2s1)C(C)(C)C)c1ccc2sccc2c1 (stereo partly drawn) [Compound 685, ((2-(((2S)-1-((2S)-2-(benzo[b]thiophen-5-yl(3-((5-(2-(2,6-dioxopiperidin-3-yl)-1-oxoisoindolin-4-yl)pent-4-yn-1-yl)(methyl)amino)-3-oxopropyl)carbamoyl)pyrrolidin-1-yl)-3,3-dimethyl-1-oxobutan-2-yl)carbamoyl)benzo[b]thiophen-5-yl)difluoromethyl)phosphonic acid]"
–,–,> 300,"CCN1CC[C@H]2CC[C@@H](C(=O)N(CCC(=O)NCC#Cc3cccc4c3CN(C3CCC(=O)NC3=O)C4=O)c3ccc(Br)cc3)N2C(=O)[C@@H](NC(=O)c2cc3cc(C(F)(F)P(=O)(O)O)ccc3s2)C1 (stereo partly drawn) [Compound 625, ((2-(((5S,8S,10aR)-8-((4-bromophenyl)(3-((3-(2-(2,6-dioxopiperidin-3-yl)-1-oxoisoindolin-4-yl)prop-2-yn-1-yl)amino)-3-oxopropyl)carbamoyl)-3-ethyl-6-oxodecahydropyrrolo[1,2-a][1,5]diazocin-5-yl)carbamoyl)benzo[b]thiophen-5-yl)difluoromethyl)phosphonic acid]"
–,–,> 300,"CCN1CC[C@H]2CC[C@@H](C(=O)N(CCC(=O)N3CCC(Nc4cccc5c4CN(C4CCC(=O)NC4=O)C5=O)CC3)c3ccc(Br)cc3)N2C(=O)[C@@H](NC(=O)c2cc3cc(C(F)(F)P(=O)(O)O)ccc3s2)C1 (stereo partly drawn) [Compound 631, ((2-(((5S,8S,10aR)-8-((4-bromophenyl)(3-(4-((2-(2,6-dioxopiperidin-3-yl)-1-oxoisoindolin-4-yl)amino)piperidin-1-yl)-3-oxopropyl)carbamoyl)-3-ethyl-6-oxodecahydropyrrolo[1,2-a][1,5]diazocin-5-yl)carbamoyl)benzo[b]thiophen-5-yl)difluoromethyl)phosphonic acid]"
–,> 10000,> 300,"CC(C)(C)[C@H](NC(=O)c1cc2cc(C(F)(F)P(=O)(O)O)ccc2s1)C(=O)N1CCC[C@H]1C(=O)N(CCC(=O)NCCCC#Cc1cccc2c1CN(C1CCC(=O)NC1=O)C2=O)c1ccc(C#N)cc1 (stereo partly drawn) [Compound 642, ((2-(((2S)-1-((2S)-2-((4-cyanophenyl)(3-((5-(2-(2,6-dioxopiperidin-3-yl)-1-oxoisoindolin-4-yl)pent-4-yn-1-yl)amino)-3-oxopropyl)carbamoyl)pyrrolidin-1-yl)-3,3-dimethyl-1-oxobutan-2-yl)carbamoyl)benzo[b]thiophen-5-yl)difluoromethyl)phosphonic acid]"
